Measurements: patent US6846803B1, “Antagonists specific for the corticotropin-releasing factor receptor type 2 (CRFR2)” (priority 1998, dated 2005)
Where two headings read alike, the source gives them in different places. Marks after values point to notes of the source that are not given here. Residues, ends and D or L forms follow the SMILES beside them. *: point of attachment. X1 = O=C(c1ccc(C2(C(F)(F)F)N=N2)cc1)*

Assays:
mCRFR2β [1] = target: T1, mCRFR2β (Mus musculus, UniProt Q60748); experiment: Displacement of [^125I-Tyr^0]Svg from membranes of HEK-mCRFR2β cells; format: binding; conditions: for Selectivity: Kd(rCRFR1)(peptide)/Kd(rCRFR1)(astressin) × Kd(mCRFR2β)(astressin)/Kd(mCRFR2β)(peptide)
T1 construct: expressed in transfected cells; host or cells: HEK 293 cells, stably transfected (HEK-mCRFR2β); membrane homogenates
Procedure: Binding assays were performed in 96-well MultiScreen plates (Millipore, Eschborn, Germany) with GF/B filters (pore size 1.0 μm). […] After incubation (60 min, 23° C.), membrane suspension was aspirated through the plate, followed by two washes with assay buffer (0.2 ml, 23°). Radioactivity of the punched filters was measured with a 1470 WIZARD automatic gamma counter (Berthold, Hannover). […] Statistical analysis was performed with ANOVA, and significant differences between groups were determined by post hoc comparison using the Dunn test.
Membrane homogenates of human embryonic kidney (HEK) 293 cells stably transfected with cDNA coding for rat CRF receptor, type 1 (rCRFR1) or mouse CRF receptor, type 2β (mCRFR2β) were prepared according to standard protocols (see, e.g., Sambrook et al., Molecular Cloning: A Laboratory Manual, 2nd. Edition, Cold Spring Habor Laboratory Press, Cold Spring Habor, N.Y., 1989; Ausubel et al., Current Protocols in Molecular Biology, Green Publishing Associates and Wiley Interscience, NY, 1989).

mCRFR2β [2] = target: T1, mCRFR2β; experiment: cAMP stimulation / inhibition of Svg-stimulated cAMP production in HEK-mCRFR2β cells; format: cell-based; parameters: Emax: dose or concentration left out as unconfirmed; conditions: for mCRFR2β relative in vitro potency: Table 2, Svg alone = 1.00 (lower = stronger inhibition); for mCRFR2β relative in vitro potency / HEK-mCRFR2β cells rel. pot. (relative potency): 10 nM antagonist, cAMP production stimulated by 1 nM Svg; for HEK-mCRFR2β cells rel. pot. (relative potency): Table 4, Svg alone = 1.00
Procedure: (§1) HEK-rCRFR1 cells or HEK-mCRFR2β cells were incubated with different CRF agonists in the presence or absence of 1 μM or 10 nM antagonist, or CRF antagonist (c=1 μM) alone. After removal of the medium, cells were lyzed with aqueous 6% trichloroacetic acid (5 min, 100° C.) (Rühmann, A., A. K. E. Köpke, F. M. Dautzenberg, and J. Spiess, Proc. Natl. Acad. Sci. USA 93: 10609-10613, 1996). The cell lysates were stored at −70° C. until assayed with a RIA kit (Amersham, Little Chalfont). […] Statistical significance was determined across groups with ANOVA, and significant differences between groups were determined by post hoc comparison using the Dunn test.
(§2) Intrinsic activities were measured at peptide concentrations generating maximal formation of cAMP in HEK-rCRFR1 or HEK-mCRFR2β cells.
Target sequence in this assay (Q60748 1-431 isoform Q60748-2): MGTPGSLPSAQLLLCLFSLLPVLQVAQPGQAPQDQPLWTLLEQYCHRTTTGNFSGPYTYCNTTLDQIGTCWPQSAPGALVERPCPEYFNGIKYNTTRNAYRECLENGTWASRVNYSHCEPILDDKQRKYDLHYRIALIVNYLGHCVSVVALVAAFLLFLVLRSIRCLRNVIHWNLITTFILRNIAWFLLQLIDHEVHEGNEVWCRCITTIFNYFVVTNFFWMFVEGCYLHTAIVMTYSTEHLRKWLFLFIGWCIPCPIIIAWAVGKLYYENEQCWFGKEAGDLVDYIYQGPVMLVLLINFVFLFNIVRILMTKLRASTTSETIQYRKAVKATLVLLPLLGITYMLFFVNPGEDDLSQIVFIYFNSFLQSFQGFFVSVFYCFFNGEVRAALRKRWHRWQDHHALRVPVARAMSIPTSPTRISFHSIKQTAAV

rCRFR1 = target: T2, rCRFR1 (Rattus norvegicus, UniProt P35353); experiment: cAMP stimulation / inhibition of oCRF-stimulated cAMP production in HEK-rCRFR1 cells; format: cell-based; conditions: for rCRFR1 relative in vitro potency: Table 2, oCRF alone = 1.00 (lower = stronger inhibition); for rCRFR1 relative in vitro potency / HEK-rCRFR1 cells rel. pot. (relative potency): 1 μM antagonist, cAMP production stimulated by 1 nM oCRF; for HEK-rCRFR1 cells rel. pot. (relative potency): Table 4, oCRF alone = 1.00
T2 construct: expressed in transfected cells; host or cells: HEK 293 cells, stably transfected (HEK-rCRFR1)
T2 sequence (P35353 24-415): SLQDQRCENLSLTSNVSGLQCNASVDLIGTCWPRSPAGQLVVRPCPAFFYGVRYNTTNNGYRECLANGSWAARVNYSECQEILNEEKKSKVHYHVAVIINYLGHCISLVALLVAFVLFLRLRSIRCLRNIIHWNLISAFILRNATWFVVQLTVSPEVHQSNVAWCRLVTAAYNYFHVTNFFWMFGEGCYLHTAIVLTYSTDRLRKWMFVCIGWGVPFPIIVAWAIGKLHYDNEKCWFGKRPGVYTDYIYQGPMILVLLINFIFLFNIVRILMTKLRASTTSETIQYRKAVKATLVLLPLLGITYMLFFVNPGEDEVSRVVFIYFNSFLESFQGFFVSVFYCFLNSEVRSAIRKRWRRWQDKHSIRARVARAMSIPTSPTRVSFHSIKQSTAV
Procedure: as §1, §2

[3] = read-out: HEK-mCRFR2β cells rel. IA (relative intrinsic activity)
[4] = read-out: mCRFR2β % IA (intrinsic activity)
[5] = read-out: HEK-rCRFR1 cells rel. IA (relative intrinsic activity)

Molecule | Selectivity (mCRFR2β [1]; Table 1) | Selectivity (mCRFR2β [1]; Table 3) | mCRFR2β relative in vitro potency (mCRFR2β [2]) | HEK-mCRFR2β cells rel. pot. (relative potency) (mCRFR2β [2]) | Emax (mCRFR2β [2]; [3]) | Emax (mCRFR2β [2]; [4]) | rCRFR1 relative in vitro potency (rCRFR1) | Kd (mCRFR2β [1]) | HEK-rCRFR1 cells rel. pot. (relative potency) (rCRFR1) | Emax (rCRFR1; [5]) | Emax (rCRFR1; read-out: rCRFR1 % IA (intrinsic activity))
CC[C@H](C)[C@H](NC(=O)[C@@H](NC(=O)[C@H](CC(=O)O)NC(=O)[C@H](CC(C)C)NC(=O)[C@H](CC(C)C)NC(=O)[C@H](CC(C)C)NC(=O)[C@H](CCCNC(=N)N)NC(=O)[C@H](CC(N)=O)NC(=O)[C@H](CC(N)=O)NC(=O)[C@H](C)NC(=O)[C@H](C)NC(=O)[C@H](CCC(N)=O)NC(=O)[C@H](CCC(N)=O)NC(=O)[C@H](CCCCN)NC(=O)[C@H](CCC(=O)O)NC(=O)[C@H](CCCCN)NC(=O)[C@H](CCC(=O)O)NC(=O)[C@H](CCC(N)=O)NC(=O)[C@H](CCCCN)NC(=O)[C@H](CCC(=O)O)NC(=O)[C@@H](NC(=O)[C@H](CCC(=O)O)NC(=O)[C@@H](NC(=O)[C@H](CCSC)NC(=O)[C@H](CCCCN)NC(=O)[C@H](CCCNC(=N)N)NC(=O)[C@H](CC(C)C)NC(=O)[C@H](CC(C)C)NC(=O)[C@H](CCC(=O)O)NC(=O)[C@H](CC(C)C)NC(=O)[C@H](CO)NC(=O)[C@H](CC(C)C)NC(=O)[C@H](CC(=O)O)NC(=O)[C@@H](NC(=O)[C@H](CO)NC(=O)[C@@H](NC(=O)[C@@H]1CCCN1C(=O)[C@@H]1CCCN1C(=O)CNC(=O)[C@@H]1CCC(=O)N1)[C@@H](C)CC)[C@@H](C)CC)[C@@H](C)CC)[C@@H](C)CC)[C@@H](C)O)C(N)=O [compound 2, Svg, reference compound] | 0.109 | 0.109 | 1.00 | 1.00 | 100% | 100% | – | – | – | – | –
α-helical CRF(9-41) [compound 4, reference compound] | 6.61 | – | 0.67 ± 0.02 | – | – | – | 0.58 ± 0.05 | – | – | – | –
cyclo(29-32)[DPhe^11, Glu^29, Lys^32]rUcn(11-40) [compound 10] | 1.48 | – | 0.89 ± 0.01 | – | – | – | 0.78 ± 0.10 | – | – | – | –
[DPhe^11, Glu^12]rUcn(11-40) [compound 8] | 5.04 | – | 0.61 ± 0.02 | – | – | – | 0.42 ± 0.11 | – | – | – | –
CC[C@H](C)[C@H](NC(=O)[C@@H](NC(=O)[C@H](CC(=O)O)NC(=O)[C@H](CC(C)C)NC(=O)[C@H](CC(C)C)NC(=O)[C@H](CC(C)C)NC(=O)[C@H](CCCNC(=N)N)NC(=O)[C@H](CC(N)=O)NC(=O)[C@H](CC(N)=O)NC(=O)[C@H](C)NC(=O)[C@H](C)NC(=O)[C@H](CCC(N)=O)NC(=O)[C@H](CCC(N)=O)NC(=O)[C@H](CCCCN)NC(=O)[C@H](CCC(=O)O)NC(=O)[C@H](CCCCN)NC(=O)[C@H](CCC(=O)O)NC(=O)[C@H](CCC(N)=O)NC(=O)[C@H](CCCCN)NC(=O)[C@H](CCC(=O)O)NC(=O)[C@@H](NC(=O)[C@H](CCC(=O)O)NC(=O)[C@@H](NC(=O)[C@H](CCSC)NC(=O)[C@H](CCCCN)NC(=O)[C@H](CCCNC(=N)N)NC(=O)[C@H](CC(C)C)NC(=O)[C@H](CC(C)C)NC(=O)[C@H](Cc1c[nH]cn1)NC(=O)[C@@H](N)Cc1ccc(O)cc1)[C@@H](C)CC)[C@@H](C)CC)[C@@H](C)O)C(N)=O [compound 18, [Tyr^11, His^12]Svg(11-40)] (H-YHLLRKMIEIEKQEKEKQQAANNRLLLDTI-NH2; N-terminus assumed) | – | 31.64 | – | 0.37 ± 0.05 | 0.8 ± 0.2% | – | – | 4.9 ± 1.8 nM | 0.79 ± 0.07 | 3 ± 1% | –
CC[C@H](C)[C@H](NC(=O)[C@@H](NC(=O)[C@H](CC(=O)O)NC(=O)[C@H](CC(C)C)NC(=O)[C@H](CC(C)C)NC(=O)[C@H](CC(C)C)NC(=O)[C@H](CCCNC(=N)N)NC(=O)[C@H](CC(N)=O)NC(=O)[C@H](CC(N)=O)NC(=O)[C@H](C)NC(=O)[C@H](C)NC(=O)[C@H](CCC(N)=O)NC(=O)[C@H](CCC(N)=O)NC(=O)[C@H](CCCCN)NC(=O)[C@H](CCC(=O)O)NC(=O)[C@H](CCCCN)NC(=O)[C@H](CCC(=O)O)NC(=O)[C@H](CCC(N)=O)NC(=O)[C@H](CCCCN)NC(=O)[C@H](CCC(=O)O)NC(=O)[C@@H](NC(=O)[C@H](CCC(=O)O)NC(=O)[C@@H](NC(=O)[C@H](CCSC)NC(=O)[C@H](CCCCN)NC(=O)[C@H](CCCNC(=N)N)NC(=O)[C@H](CC(C)C)NC(=O)[C@H](CC(C)C)NC(=O)[C@H](Cc1c[nH]cn1)NC(=O)[C@H](N)Cc1ccccc1)[C@@H](C)CC)[C@@H](C)CC)[C@@H](C)O)C(N)=O [compound 11, [DPhe^11, His^12]Svg(11-40)] | – | – | – | – | 0.4 ± 0.1% | 0.4 ± 0.1% | – | 1.4 ± 0.4 nM | – | 4 ± 1% | 4 ± 1%
[DPhe^11]rUcn(11-40) [compound 7] | 4.45 | – | 0.57 ± 0.06 | – | – | – | 0.18 ± 0.03^g | – | – | – | –
[DPhe^12]oCRF(12-41) [compound 6] | 1.32 | – | 0.92 ± 0.07^k | – | – | – | 0.89 ± 0.07 | – | – | – | –
CC[C@H](C)[C@H](NC(=O)[C@@H](NC(=O)[C@H](CC(=O)O)NC(=O)[C@H](CC(C)C)NC(=O)[C@H](CC(C)C)NC(=O)[C@H](CC(C)C)NC(=O)[C@H](CCCNC(=N)N)NC(=O)[C@H](CC(N)=O)NC(=O)[C@H](CC(N)=O)NC(=O)[C@H](C)NC(=O)[C@H](C)NC(=O)[C@H](CCC(N)=O)NC(=O)[C@H](CCC(N)=O)NC(=O)[C@H](CCCCN)NC(=O)[C@H](CCC(=O)O)NC(=O)[C@H](CCCCN)NC(=O)[C@H](CCC(=O)O)NC(=O)[C@H](CCC(N)=O)NC(=O)[C@H](CCCCN)NC(=O)[C@H](CCC(=O)O)NC(=O)[C@@H](NC(=O)[C@H](CCC(=O)O)NC(=O)[C@@H](NC(=O)[C@H](CCSC)NC(=O)[C@H](CCCCN)NC(=O)[C@H](CCCNC(=N)N)NC(=O)[C@H](CC(C)C)NC(=O)[C@H](CC(C)C)NC(=O)[C@H](Cc1c[nH]cn1)NC(=O)c1ccc(C2(C(F)(F)F)N=N2)cc1)[C@@H](C)CC)[C@@H](C)CC)[C@@H](C)O)C(N)=O [compound 17, ATB-[His^12]Svg(12-40)] (X1-HLLRKMIEIEKQEKEKQQAANNRLLLDTI-NH2) | – | 32.26 | – | 0.48 ± 0.04 | 0.7 ± 0.2% | – | – | 3.1 ± 0.2 nM | 0.54 ± 0.06 | 15 ± 1% | –
[DLeu^11, Glu^12]rUcn(11-40) [compound 9] | 2.29 | – | 0.81 ± 0.06 | – | – | – | 0.56 ± 0.05 | – | – | – | –
CC[C@H](C)[C@H](NC(=O)[C@@H](NC(=O)[C@H](CC(=O)O)NC(=O)[C@H](CC(C)C)NC(=O)[C@H](CC(C)C)NC(=O)[C@H](CC(C)C)NC(=O)[C@H](CCCNC(=N)N)NC(=O)[C@H](CC(N)=O)NC(=O)[C@H](CC(N)=O)NC(=O)[C@H](C)NC(=O)[C@H](C)NC(=O)[C@H](CCC(N)=O)NC(=O)[C@H](CCC(N)=O)NC(=O)[C@H](CCCCN)NC(=O)[C@H](CCC(=O)O)NC(=O)[C@H](CCCCN)NC(=O)[C@H](CCC(=O)O)NC(=O)[C@H](CCC(N)=O)NC(=O)[C@H](CCCCN)NC(=O)[C@H](CCC(=O)O)NC(=O)[C@@H](NC(=O)[C@H](CCC(=O)O)NC(=O)[C@@H](NC(=O)[C@H](CCSC)NC(=O)[C@H](CCCCN)NC(=O)[C@H](CCCNC(=N)N)NC(=O)[C@H](CC(C)C)NC(=O)[C@H](CC(C)C)NC(=O)[C@H](CCC(=O)O)NC(=O)[C@@H](N)Cc1ccc(O)cc1)[C@@H](C)CC)[C@@H](C)CC)[C@@H](C)O)C(N)=O [compound 19, [Tyr^11]Svg(11-40)] | – | 32.97 | – | 0.67 ± 0.04 | 0.7 ± 0.2% | – | – | 20.8 ± 1.6 nM | 0.82 ± 0.06 | 9 ± 1% | –
